Measured values taken from US6511976B1, “Halogen substituted tetracyclic tetrahydrofuran derivatives” (Jannsen Pharmaceutica, N.V., priority 1997, dated 2003).

Tests used:
mCPP induced effects = assay: mCPP Test on Rats (pre-test time T of 1 hour); assay type: in vivo; conditions: test compound at pre-test time T of 1 hour; 1 mg/kg mCPP intravenously 15 minutes prior to test; Open Field Test
Protocol: Rats were treated with the test compound at a varying dose at a pre-test time T of 1 hour and with 1 mg/kg mCPP (metachlorophenylpiperazine), injected intravenously, 15 minutes prior to the test. After pre-test time T elapsed, treated rats were submitted to the “Open Field Test on Rats” as described in Drug Dev. Res. 18, 119-144 (1989), but using an infra-red light source instead of a Kleverlux® (12V/20W) light source. […] Compound numbers 2 and 8 through 16 were active at a test dose of 2.5 mg/kg or lower. Other compounds were either not tested or were active at a higher dose.

[1] = dose of 300 mg/kg; cited from earlier work
[2] = test system: serotonin (central symptoms elicited with the serotonin agonist tryptamine); assay: ATN Test in Rats: tryptamine interaction; assay type: in vivo; conditions: observed at 90 minutes following subcutaneous administration
Text: (§1) The antipsychotic activity of the subject compounds is evidenced by the experimental data obtained in the combined apomorphine (APO), tryptamine (TRY) and norepinephrine (NOR) test in rats. Said combined apomorphine, tryptamine and norepinephrine test is described in Arch. Int. Pharmacodyn., 227, 238-253 (1977) and provides an empirical evaluation of the relative specificity with which drugs may effect particular neurotransmitter systems centrally (CNS) as well as peripherally. […] The favourable pharmacological property of the present compounds compared to the compounds specifically disclosed in WO 97/38991 lies in their ability to antagonize the central symptoms elicited by apomorphine and tryptamine.

[3] = test system: dopamine (symptoms elicited with the dopamine agonist apomorphine); assay: ATN Test in Rats: apomorphine interaction; assay type: in vivo; conditions: observed at 30 minutes following subcutaneous administration
Text: as §1

Row | SMILES | active dose (40% or more of the tested rats showed suppression of the mCPP induced effects, mCPP-antagonism) (mCPP induced effects) [mg/kg] | activity as antidepressant [1] | ED50, tryptamine interaction: antagonism of backward locomotion [2] [mg/kg] | ED50, tryptamine interaction: antagonism of bilateral clonic convulsions [2] | ED50, apomorphine interaction: antagonism of agitation and stereotypy [3] [mg/kg]
1 | CN(C)CC1CC2c3ccccc3Cc3ccc(F)cc3C2O1.Cl (racemic) [Compound 2, (±)-(2α,3aβ,12bα)-11-fluoro-3,3a,8,12b-tetrahydro N,N-dimethyl-2H-dibenzo[3,4:6,7]cyclohepta[1,2-b]furan-2-methanamine hydrochloride] | ≤ 2.5 | – | – | – | –
2 | CNCC1CC2c3ccccc3Cc3ccccc3C2O1.O=C(O)C(=O)O (racemic) [(±)-3,3a,8,12b-tetrahydro-N-methyl-2H-dibenzo[3,4:6,7]-cyclohepta-[1,2-b]furan-2-methanamine oxalic acid] | – | inactive | – | – | –
3 | CN(C)CC1CC2c3ccccc3Cc3ccccc3C2O1 (single isomer, unassigned) [b] | – | – | 1.3 | 1.3 mg/kg | >10
4 | CN(C)CC1CC2c3ccccc3Cc3ccccc3C2O1 (single isomer, unassigned) [c] | – | – | 10 | 1.25 mg/kg | >10
5 | CN(C)CC1CC2c3ccccc3Cc3ccc(F)cc3C2O1.O=C(O)C(O)C(O)C(=O)O (stereo not drawn) [Compound 11, [B-(2α,3aβ,12bα)]-11-fluoro-3,3a,8,12b-tetrahydro-N,N-dimethyl-2H-dibenzo[3,4:6,7]cyclohepta[1,2-b]furan-2-methanamine (+)-[R-R*,R*)]-2,3-dihydroxybutanedioate (1:1)] | – | – | 0.5 | 0.4 mg/kg | 2.0
6 | CN(C)CC1CC2c3ccccc3Cc3ccccc3C2O1 (single isomer, unassigned) [a] | – | – | 10 | ≧10 mg/kg | >10
7 | CN(C)CC1CC2c3ccccc3Cc3ccccc3C2O1 (single isomer, unassigned) [d] | – | – | 0.2 | 0.15 mg/kg | 2.7
